2 molecules from ChEMBL document CHEMBL5696443 (Clin Cancer Res, 2016) can be followed below.

Active and inactive are the calls of the source. The rule behind the calls is not given here.

For data set [1], the system named is BaF3. As to the kind of experiment: Antitumor activity against mouse BaF3 cells expressing native EML4-ALK implanted in mouse assessed as tumor regression at 60 mg/kg, po administered once daily and measured after 8 days relative to control. Type of data set: functional. The note with it: time 8 day.
Data set [2] is described as follows: Protein binding in human plasma assessed as unbound fraction at 600 mg, administered twice a day. Format: ADME, cell-free.
Data set [3] can be described thus: Toxicity in CB-17/SCID mouse implanted with ALK positive mouse BaF3 cells expressing EML4-ALK G1202R mutant assessed as effect on body weight at 60 mg/kg, po administered once daily and measured after 6 days. Format: organism-based. As to conditions: in vivo, 144 h, time 6 day.
Data set [4] concerns BaF3. Description: animal or person. As to conditions: Mus musculus, BaF3, po, 192 h, read-out: TGI.
A short description of a further data set: in vitro. The note with it: mouse, BaF3 cells.
Data set [5] is described as follows: Protein binding in human plasma at 600 mg, administered twice a day. The note with it: read-out: PPB (converted). Type of data set: ADME, cell-free.
Data set [6] is described as follows: Average plasma concentration in CB-17/SCID mouse implanted with mouse BaF3 cells expressing EML4-ALK G1202R mutant at 60 mg/kg, po administered once daily for 7 days by LC-MS/MS analysis. As to conditions: in vivo, 168 h, time 7 day. Type of data set: ADME, organism-based.
Data set [7] in a line: Toxicity in CB-17/SCID mouse implanted with ALK positive mouse BaF3 cells expressing EML4-ALK G1202R mutant assessed as effect on body weight at 50 mg/kg, po administered once daily and measured after 6 days. Type of data set: organism-based. The note with it: in vivo, 144 h, time 6 day.
Data set [8] in a line: Protein binding in human plasma at 750 mg, administered once a day. Format: ADME, cell-free. As to conditions: read-out: PPB (converted).
In data set [9] the test system is EML4-ALK (Homo sapiens), Q9UM73+Q9HC35 [D1203N]. The note with it: BaF3, dose 1000.0 nmol/L, time 3-5 weeks.
In data set [10] the test system is EML4-ALK (Homo sapiens), Q9UM73+Q9HC35 [S1206Y]. The note with it: BaF3, time 3-5 weeks.
In data set [11] the test system is EML4-ALK (Homo sapiens), Q9UM73+Q9HC35 [C1156Y]. The note with it: BaF3, dose 1000.0 nmol/L, time 3-5 weeks.
For data set [12], the system named is EML4-ALK (Homo sapiens), Q9UM73+Q9HC35 [S1206F]. The note with it: BaF3, time 3-5 weeks.
The subject of data set [13] is EML4-ALK (Homo sapiens), Q9UM73+Q9HC35 [L1198F]. As to conditions: BaF3, dose 500.0 nmol/L, time 3-5 weeks.
Data set [14] relates to EML4-ALK (Homo sapiens), Q9UM73+Q9HC35 [G1202R]. As to conditions: BaF3, dose 1000.0 nmol/L, time 3-5 weeks.
Data set [15] has as its system EML4-ALK (Homo sapiens), Q9UM73+Q9HC35 [F1174I]. The note with it: BaF3, dose 200.0 nmol/L, time 3-5 weeks.
The test system of data set [16] is EML4-ALK (Homo sapiens), Q9UM73+Q9HC35 [UNDEFINED MUTATION]. The note with it: BaF3, dose 1000.0 nmol/L, time 3-5 weeks.
In data set [17] the test system is EML4-ALK (Homo sapiens), Q9UM73+Q9HC35 [E1210K]. The note with it: BaF3, dose 1000.0 nmol/L, time 3-5 weeks.
Data set [18] relates to EML4-ALK (Homo sapiens), Q9UM73+Q9HC35 [F1174C]. As to conditions: BaF3, dose 1000.0 nmol/L, time 3-5 weeks.
Data set [19] concerns EML4-ALK (Homo sapiens), Q9UM73+Q9HC35 [S1206A]. The note with it: BaF3, dose 200.0 nmol/L, time 3-5 weeks.
Data set [20] has as its system EML4-ALK (Homo sapiens), Q9UM73+Q9HC35 [L1198F]. The note with it: BaF3, time 3-5 weeks.
The subject of data set [21] is EML4-ALK (Homo sapiens), Q9UM73+Q9HC35 [G1269A]. The note with it: BaF3, dose 1000.0 nmol/L, time 3-5 weeks.
Data set [22] concerns BaF3. As to the kind of experiment: animal or person. As to conditions: Mus musculus, BaF3, po, 192 h, read-out: TGI. The source holds these as a separate data set.
The test system of data set [23] is EML4-ALK (Homo sapiens), Q9UM73+Q9HC35 [L1198F]. As to conditions: BaF3, dose 1000.0 nmol/L, time 3-5 weeks.
Data set [24] relates to EML4-ALK (Homo sapiens), Q9UM73+Q9HC35 [L1152P]. As to conditions: BaF3, time 3-5 weeks.
Data set [25] deals with BaF3. As to the kind of experiment: Antitumor activity against mouse BaF3 cells expressing native EML4-ALK implanted in mouse assessed as tumor growth inhibition at 50 mg/kg, po administered once daily and measured after 8 days relative to control. Type of data set: functional. As to conditions: BaF3, 192 h, time 8 day, read-out: TGI.
In data set [26] the test system is EML4-ALK (Homo sapiens), Q9UM73+Q9HC35 [I1171N]. As to conditions: BaF3, dose 1000.0 nmol/L, time 3-5 weeks.
For data set [27], the system named is EML4-ALK (Homo sapiens), Q9UM73+Q9HC35 [L1196M]. As to conditions: BaF3, dose 1000.0 nmol/L, time 3-5 weeks.
Data set [28] can be described thus: Protein binding in human plasma assessed as unbound fraction at 750 mg, administered once a day. Type of data set: ADME, cell-free.
The test system of data set [29] is EML4-ALK (Homo sapiens), Q9UM73+Q9HC35 [S1206Y]. As to conditions: BaF3, dose 1000.0 nmol/L, time 3-5 weeks.
Data set [30] has as its system EML4-ALK (Homo sapiens), Q9UM73+Q9HC35 [F1174C]. As to conditions: BaF3, dose 200.0 nmol/L, time 3-5 weeks.
Data set [31] relates to EML4-ALK (Homo sapiens), Q9UM73+Q9HC35 [L1152R]. As to conditions: BaF3, dose 1000.0 nmol/L, time 3-5 weeks.
The test system of data set [32] is EML4-ALK (Homo sapiens), Q9UM73+Q9HC35 [F1174V]. As to conditions: BaF3, dose 200.0 nmol/L, time 3-5 weeks.
For data set [33], the system named is EML4-ALK (Homo sapiens), Q9UM73+Q9HC35 [F1174C]. The note with it: BaF3, time 3-5 weeks.
Data set [34] concerns EML4-ALK (Homo sapiens), Q9UM73+Q9HC35 [F1174V]. As to conditions: BaF3, dose 1000.0 nmol/L, time 3-5 weeks.
Data set [35] relates to EML4-ALK (Homo sapiens), Q9UM73+Q9HC35 [L1198F]. As to conditions: BaF3, dose 200.0 nmol/L, time 3-5 weeks.
Data set [36] has as its system EML4-ALK (Homo sapiens), Q9UM73+Q9HC35 [F1174L]. As to conditions: BaF3, dose 1000.0 nmol/L, time 3-5 weeks.
Data set [37] deals with EML4-ALK (Homo sapiens), Q9UM73+Q9HC35 [G1202R]. The note with it: BaF3, time 3-5 weeks.
Data set [38] concerns EML4-ALK (Homo sapiens), Q9UM73+Q9HC35 [S1206F]. As to conditions: BaF3, dose 1000.0 nmol/L, time 3-5 weeks.
In data set [39] the test system is EML4-ALK (Homo sapiens), Q9UM73+Q9HC35 [L1152R]. The note with it: BaF3, time 3-5 weeks.
The subject of data set [40] is EML4-ALK (Homo sapiens), Q9UM73+Q9HC35 [L1152P]. The note with it: BaF3, dose 1000.0 nmol/L, time 3-5 weeks.
Data set [41] concerns EML4-ALK (Homo sapiens), Q9UM73+Q9HC35 [V1180L]. The note with it: BaF3, dose 1000.0 nmol/L, time 3-5 weeks.

As a reminder, the IC50 is the concentration that inhibits the measured activity by half. Low readings indicate greater potency, high ones weaker potency. The IC90 is the concentration needed for an effect of 90%. Read a high IC90 as a need for much substance. Regarding `CCc1cc2c(cc1N1CCC(N3CCOCC3)CC1)C(C)(C)c1[nH]c3cc(C#N)ccc3c1C2=O` [ALECTINIB], the Activity in the data set with BaF3 [1] is given as 95%; in data set [3], “Non-Toxic”. Further, the fraction unbound in [2] and in [5] was 0.003 in each case. The inhibition in vivo at 60 mg/kg with BaF3 [4] was 0%. In the data set “in vitro”, this molecule gave an IC50 of 2.07 µM. Further, in the data set “in vitro”, the IC90 was determined as 7.46 µM. The Cave in data set [6] is 8.817 µM.

Turning to `Cc1cc(Nc2ncc(Cl)c(Nc3ccccc3S(=O)(=O)C(C)C)n2)c(OC(C)C)cc1C1CCNCC1` [CERITINIB], the Activity entry in data set [7] is “Non-Toxic”. Also, the fraction unbound in data set [8] and in data set [28] was 0.028 in each case. Further, the inhibition result in data set [9], in data set [11], in data set [14], in [16], in data set [17] and in [18] was “Active” each time. Further, the inhibition entry in data set [21], in data set [23], in [26], in data set [27], in data set [29] and in data set [31] was “Active” in each case. Besides, the inhibition result in [34], in data set [36], in data set [38], in [40] and in data set [41] was “Active” in each case. Moreover, the IC90 in [10] was 0.099 µM; in [12] it was 0.099 µM; in data set [20], 1.32 µM; in data set [24], 1.23 µM; in the data set “in vitro”, 2.84 µM; in data set [33], 0.229 µM. In addition, the results for the IC90 in data set [37] and in data set [39] were 1.04 µM and 1.27 µM, respectively. The inhibition result in data set [13], in [15], in data set [19], in data set [30], in data set [32] and in data set [35] was “inactive” throughout. For the same molecule, the inhibition in vivo at 50 mg/kg was 14% in the data set on BaF3 [22] and 97% with BaF3 [25]. Besides, in the data set “in vitro”, the IC50 came out at 1.67 µM.
